# Measurements reported in patent US20220117945A1, “ISOXAZOLE CARBOXAMIDE COMPOUNDS AND USES THEREOF” (NOVARTIS AG, priority 2017, published 2022).
# Tested on: Atoh1 expression in mouse cerebellar neural precursor cells
# Test: Atoh1 induction assay in mouse cerebellar neural precursor cells (NPCs), Atoh1-GFP reporter
# Format: cell-based
# Conditions: 10 doses 50 μM to 200 nM, 72 hours treatment, DMSO control = 1, more than 5 considered significant, read-out: fold difference (maximum fold difference of GFP average intensity in cell nuclei over the DMSO control)
# Protocol: Compounds of the present disclosure were assessed for their ability to increase the Atoh1 expression in mouse cerebellar neural precursor cells. The ability of compounds of the present disclosure to induce new hair cell formation was assessed in ex vivo hair cell induction assay using 6-day-postnatal mouse cochlea explants with hair cell damage.
# Atoh1 Induction Assay in Mouse Cerebellar Neural Precursor Cells (NPCs)
# Atoh1 induction assay was conducted with in vitro cultured cerebellar neural precursor cells isolated from neonatal transgenic Atoh1-GFP mice. Atoh1 expression is mainly regulated by the enhancer, and the nuclear GFP was driven by the cloned enhancer sequence at 3′ of Atoh1 which had high conservation among mammalians. So Atoh1 induction could be reflected by GFP activation in cerebellar neural precursor cells (Helms et al., Development 2000; 127: 1185-1196; Lumpkin et al., Gene Expression Patterns 2003; 3: 389-395). Postnatal 3 days pups were dissected for cerebellum tissue isolation. The cerebellum tissue was cut into small pieces, and dissociated with 0.05% Trypsin for about 10 minutes at 37° C., and then filtered with a 70 uM cell strainer. The cells were cultured as neuropsheres for the first 2 days in ultra-low attachment dish/well-plate with DMEM/F12+1% N2 &2% B27 with 1% P/S, 20 ng/ml rhFGF2 and 20 ng/ml rhEGF (R&D Systems). Then the spheres were plated to the matrigel (1:30 diluted in DMEM/F12)-coated tissue culture dish for monolayer culture. After 4.5-5.5 days culture in vitro (DIV), cells were dissociated with 0.05% trypsin into single cells, and frozen after cell number calculation.
# The cerebellar neural precursor cells (NPCs) were re-thawed from stock and cultured for another 2 days before used for Atoh1 induction assay. On the first day of assay, NPCs were seeded into matrigel-coated 384 well plates (Black view-plate, PE) at 2500 cells/well. After over-night culture, the NPCs were treated with representative compounds of the present disclosure with 1:2 serial dilutions for 10 doses, from 50 μM to 200 nM, with DMSO as negative control. After 72 hours treatment without medium change, the cells were fixed with 4% formalin for staining. Assay plates were stained with GFP antibody (Abcam, #13970, 1:1000) to amplify endogenous GFP signal and then read by Cellomics.
row,SMILES,maximal fold induction
1,O=C(NCCCCCN1CC2(COC2)C1)c1cc(-c2ccc(F)cc2)on1 [Example 69],33.5
2,NS(=O)(=O)C1CN(CCCCCNC(=O)c2cc(-c3ccc(F)cc3)on2)C1 [Example 70],14
3,O=C(NCCCCCN1CC(c2ncc[nH]2)C1)c1cc(-c2ccc(F)cc2)on1 [Example 71],26.8
4,"NS(=O)(=O)C1CN(CCCCCNC(=O)c2cc(-c3cccs3)on2)C1 [Example 72, N-(5-(3-sulfamoylazetidin-1-yl)pentyl)-5-(thiophen-2-yl)isoxazole-3-carboxamide]",15.5
5,"CN1CCN(CCCCCNC(=O)c2cc(-c3ccc(F)s3)on2)CC1 [Example 73, 5-(5-Fluorothiophen-2-yl)-N-(5-(4-methylpiperazin-1-yl)pentyl)isoxazole-3-carboxamide]",19.1
6,"CN1CCN(CCC(F)(F)CCNC(=O)c2cc(-c3cccs3)on2)CC1 [Example 74, N-(3,3-Difluoro-5-(4-methylpiperazin-1-yl)pentyl)-5-(thiophen-2-yl)isoxazole-3-carboxamide]",19.4
7,"NC(=O)C1CN(CCC(F)(F)CCNC(=O)c2cc(-c3cccs3)on2)C1 [Example 75, N-(5-(3-Carbamoylazetidin-1-yl)-3,3-difluoropentyl)-5-(thiophen-2-yl)isoxazole-3-carboxamide]",20.6
8,"NC(=O)C1CN(CCC(F)(F)CCNC(=O)c2cc(-c3ccc(F)cc3)on2)C1 [Example 76, N-(5-(3-Carbamoylazetidin-1-yl)-3,3-difluoropentyl)-5-(4-fluorophenyl)isoxazole-3-carboxamide]",20.4
9,"N#CCNC(=O)C1CN(CCCCCNC(=O)c2cc(-c3cccs3)on2)C1 [Example 77, N-(5-(3-((Cyanomethyl)carbamoyl)azetidin-1-yl)pentyl)-5-(thiophen-2-yl)isoxazole-3-carboxamide]",24.1
10,"O=C(NCCCCCN1CC(C(=O)NCCO)C1)c1cc(-c2cccs2)on1 [Example 78, N-(5-(3-((2-Hydroxyethyl)carbamoyl)azetidin-1-yl)pentyl)-5-(thiophen-2-yl)isoxazole-3-carboxamide]",23.1
11,"O=C(NCCCCCN1CC(C(=O)N[C@H]2C[C@@H](O)C2)C1)c1cc(-c2cccs2)on1 [Example 79, N-(5-(3-(((1,3-cis)-3-Hydroxycyclobutyl)carbamoyl)azetidin-1-yl)pentyl)-5-(thiophen-2-yl)isoxazole-3-carboxamide]",26.6
12,"O=C(NCCCCCN1CC(C(=O)N[C@H]2C[C@H](O)C2)C1)c1cc(-c2cccs2)on1 [Example 80, N-(5-(3-(((1,3-trans)-3-Hydroxycyclobutyl)carbamoyl)azetidin-1-yl)pentyl)-5-(thiophen-2-yl)isoxazole-3-carboxamide]",47.2
13,"O=C(NCCCCCN1CC(C(=O)NCCCO)C1)c1cc(-c2cccs2)on1 [Example 81, N-(5-(3-((3-Hydroxypropyl)carbamoyl)azetidin-1-yl)pentyl)-5-(thiophen-2-yl)isoxazole-3-carboxamide]",33
14,"O=C(NCCCCCN1CC(C(=O)NC2CCC(O)C2)C1)c1cc(-c2cccs2)on1 (stereo not drawn) [Example 82, N-(5-(3-((3-Hydroxycyclopentyl)carbamoyl)azetidin-1-yl)pentyl)-5-(thiophen-2-yl)isoxazole-3-carboxamide]",31.9
15,"O=C(NCCCCCN1CC(C(=O)NC2CCCC2O)C1)c1cc(-c2cccs2)on1 (stereo not drawn) [Example 83, N-(5-(3-((2-Hydroxycyclopentyl)carbamoyl)azetidin-1-yl)pentyl)-5-(thiophen-2-yl)isoxazole-3-carboxamide]",34.4
16,"N#CCCNC(=O)C1CN(CCCCCNC(=O)c2cc(-c3cccs3)on2)C1 [Example 84, N-(5-(3-((2-Cyanoethyl)carbamoyl)azetidin-1-yl)pentyl)-5-(thiophen-2-yl)isoxazole-3-carboxamide]",35.1
17,"CNC(=O)C1CN(CCCCCNC(=O)c2cc(-c3ccc(F)cc3)on2)C1 [Example 85, 5-(4-Fluorophenyl)-N-(5-(3-(methylcarbamoyl)azetidin-1-yl)pentyl)isoxazole-3-carboxamide]",20.7
18,"CCNC(=O)C1CN(CCCCCNC(=O)c2cc(-c3ccc(F)cc3)on2)C1 [Example 86, N-(5-(3-(Ethylcarbamoyl)azetidin-1-yl)pentyl)-5-(4-fluorophenyl)isoxazole-3-carboxamide]",36.7
19,"N#CCCNC(=O)C1CN(CCCCCNC(=O)c2cc(-c3ccc(F)cc3)on2)C1 [Example 87, N-(5-(3-((2-Cyanoethyl)carbamoyl)azetidin-1-yl)pentyl)-5-(4-fluorophenyl)isoxazole-3-carboxamide]",27.8
20,"N#CCNC(=O)C1CN(CCCCCNC(=O)c2cc(-c3ccc(F)cc3)on2)C1 [Example 88, N-(5-(3-((Cyanomethyl)carbamoyl)azetidin-1-yl)pentyl)-5-(4-fluorophenyl)isoxazole-3-carboxamide]",9.3
21,"O=C(NCCCCCN1CC(C(=O)N[C@H]2C[C@H](O)C2)C1)c1cc(-c2ccc(F)cc2)on1 [Example 89, 5-(4-Fluorophenyl)-N-(5-(3-(((1,3-trans)-3-hydroxycyclobutyl)carbamoyl)azetidin-1-yl)pentyl)isoxazole-3-carboxamide]",11
22,"O=C(NCCCCCN1CC(C(=O)NCCO)C1)c1cc(-c2ccc(F)cc2)on1 [Example 90, 5-(4-Fluorophenyl)-N-(5-(3-((2-hydroxyethyl)carbamoyl)azetidin-1-yl)pentyl)isoxazole-3-carboxamide]",19.1
23,"O=C(NCCCCCN1CC(C(=O)N[C@H]2CCC[C@@H]2O)C1)c1cc(-c2ccc(F)cc2)on1 [Example 91, 5-(4-Fluorophenyl)-N-(5-(3-(((1S,2S)-2-hydroxycyclopentyl)carbamoyl)azetidin-1-yl)pentyl)isoxazole-3-carboxamide]",34.5
24,"O=C(NCCCCCN1CC(C(=O)N[C@H]2C[C@@H](O)C2)C1)c1cc(-c2ccc(F)cc2)on1 [Example 92, 5-(4-Fluorophenyl)-N-(5-(3-(((1,3-cis)-3-hydroxycyclobutyl)carbamoyl)azetidin-1-yl)pentyl)isoxazole-3-carboxamide]",13
25,"CC(=O)C1CN(CCCCCNC(=O)c2cc(-c3cccs3)on2)C1 [Example 93, N-(5-(3-Acetylazetidin-1-yl)pentyl)-5-(thiophen-2-yl)isoxazole-3-carboxamide]",12.4
26,"O=C(NCCCCCN1CCn2cncc2C1)c1cc(-c2cccs2)on1 [Example 94, N-(5-(5,6-dihydroimidazo[1,5-a]pyrazin-7(8H)-yl)pentyl)-5-(thiophen-2-yl)isoxazole-3-carboxamide]",20.6
27,"O=C(NCCCCCN1CC(c2ncc[nH]2)C1)c1cc(-c2cccs2)on1 [Example 95, N-(5-(3-(1H-imidazol-2-yl)azetidin-1-yl)pentyl)-5-(thiophen-2-yl)isoxazole-3-carboxamide]",21.8
